The source made the active and inactive calls. The calls are words filed in the database; no cut-off is given here.
Assays:
[1] = Metabolic stability in female BALB/c mouse microsomes assessed as hepatic extraction ratio administered intravenously; type: ADME; settings: route iv, read-out: ERH
[2] = target: T1, von Hippel-Lindau disease tumor suppressor/SWI/SNF-related matrix-associated actin-dependent regulator of chromatin subfamily A member 4 (Homo sapiens, UniProt P51532+P40337); assay: PROTAC activity at VHL/SMARCA4 in human HT-1080 cells assessed as induction of SMARCA4 degradation by measuring maximum efficacy incubated for 6 hrs by Nano-Glo HiBiT Lytic Detection Assay relative to control; type: cell-based
[3] = target: T1, von Hippel-Lindau disease tumor suppressor/SWI/SNF-related matrix-associated actin-dependent regulator of chromatin subfamily A member 4; assay: PROTAC activity at VHL/SMARCA4 in human HT-1080 cells assessed as induction of SMARCA4 degradation incubated for 24 hrs by Nano-Glo HiBiT Lytic Detection Assay; type: cell-based
Target sequence in this assay (P51532 whole entry): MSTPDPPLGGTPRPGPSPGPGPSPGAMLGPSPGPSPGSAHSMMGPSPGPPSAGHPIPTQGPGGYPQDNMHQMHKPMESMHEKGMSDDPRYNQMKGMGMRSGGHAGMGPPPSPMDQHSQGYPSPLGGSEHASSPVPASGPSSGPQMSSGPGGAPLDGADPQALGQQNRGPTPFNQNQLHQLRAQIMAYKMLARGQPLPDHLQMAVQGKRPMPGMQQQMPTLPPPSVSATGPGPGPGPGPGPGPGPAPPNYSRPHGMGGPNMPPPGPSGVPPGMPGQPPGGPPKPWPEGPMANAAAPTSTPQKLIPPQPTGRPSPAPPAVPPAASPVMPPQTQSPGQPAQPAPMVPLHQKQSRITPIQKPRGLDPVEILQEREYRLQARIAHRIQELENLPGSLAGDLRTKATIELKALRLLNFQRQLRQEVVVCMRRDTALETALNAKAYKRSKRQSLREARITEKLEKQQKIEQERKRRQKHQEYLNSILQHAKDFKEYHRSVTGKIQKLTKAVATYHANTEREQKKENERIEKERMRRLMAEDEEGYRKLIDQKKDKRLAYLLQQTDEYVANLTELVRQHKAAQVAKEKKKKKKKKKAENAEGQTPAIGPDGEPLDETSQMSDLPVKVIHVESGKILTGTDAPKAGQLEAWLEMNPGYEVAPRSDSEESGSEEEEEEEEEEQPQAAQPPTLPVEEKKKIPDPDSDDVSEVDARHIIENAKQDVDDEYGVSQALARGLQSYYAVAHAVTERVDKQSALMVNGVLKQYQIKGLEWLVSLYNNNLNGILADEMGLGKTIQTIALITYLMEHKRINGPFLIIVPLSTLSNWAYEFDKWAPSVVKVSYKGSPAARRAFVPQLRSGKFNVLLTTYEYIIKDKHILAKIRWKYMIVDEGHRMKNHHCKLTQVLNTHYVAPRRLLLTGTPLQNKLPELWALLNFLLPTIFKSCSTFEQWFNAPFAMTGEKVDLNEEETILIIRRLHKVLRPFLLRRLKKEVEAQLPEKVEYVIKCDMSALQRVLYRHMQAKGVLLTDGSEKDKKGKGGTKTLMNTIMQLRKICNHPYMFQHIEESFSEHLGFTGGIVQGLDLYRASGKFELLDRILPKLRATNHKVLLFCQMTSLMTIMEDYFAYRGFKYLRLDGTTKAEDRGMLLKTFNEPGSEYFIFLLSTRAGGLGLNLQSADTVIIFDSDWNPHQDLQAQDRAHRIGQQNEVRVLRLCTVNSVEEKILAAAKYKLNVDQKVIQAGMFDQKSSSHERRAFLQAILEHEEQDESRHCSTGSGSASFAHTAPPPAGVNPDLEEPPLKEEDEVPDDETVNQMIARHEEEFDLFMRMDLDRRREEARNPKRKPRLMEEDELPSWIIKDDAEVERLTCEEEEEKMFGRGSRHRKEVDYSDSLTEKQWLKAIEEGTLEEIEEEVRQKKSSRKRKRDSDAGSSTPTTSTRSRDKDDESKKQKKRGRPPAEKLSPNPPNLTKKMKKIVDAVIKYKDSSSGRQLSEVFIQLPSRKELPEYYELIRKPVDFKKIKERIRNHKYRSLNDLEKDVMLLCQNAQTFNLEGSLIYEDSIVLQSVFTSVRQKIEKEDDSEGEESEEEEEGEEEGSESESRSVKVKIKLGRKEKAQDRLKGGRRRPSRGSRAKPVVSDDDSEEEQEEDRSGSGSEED
Target sequence in this assay (P40337 whole entry): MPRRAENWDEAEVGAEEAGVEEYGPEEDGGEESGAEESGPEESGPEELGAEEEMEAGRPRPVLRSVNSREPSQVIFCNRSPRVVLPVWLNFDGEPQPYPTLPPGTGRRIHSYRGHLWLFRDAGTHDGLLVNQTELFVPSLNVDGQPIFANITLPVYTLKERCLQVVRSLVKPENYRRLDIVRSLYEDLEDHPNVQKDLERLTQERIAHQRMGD

[4] = Selectivity ratio of DC50 for PROTAC activity at VHL/SMARCA4 in human HT-1080 cells (unknown origin) to DC50 for VHL/SMARCA2 in human HT-1080 cells (unknown origin); type: cell-based
[5] = Metabolic stability in female BALB/c mouse microsomes assessed as half life administered intravenously; type: ADME; settings: route iv
[6] = target: von Hippel-Lindau disease tumor suppressor (Homo sapiens, UniProt P40337); assay: Binding affinity to VHL (unknown origin) incubated for 30 mins by HTRF assay
[7] = target: T2, von Hippel-Lindau disease tumor suppressor/SWI/SNF-related matrix-associated actin-dependent regulator of chromatin subfamily A member 2 (Homo sapiens, UniProt P51531+P40337); assay: PROTAC activity at VHL/SMARCA2 in human HT-1080 cells assessed as induction of SMARCA2 degradation by measuring maximum efficacy incubated for 6 hrs by Nano-Glo HiBiT Lytic Detection Assay relative to control; type: cell-based
Target sequence in this assay (P40337 whole entry, looked up): as the sequence (P40337 whole entry) above
Target sequence in this assay (P51531 whole entry, looked up): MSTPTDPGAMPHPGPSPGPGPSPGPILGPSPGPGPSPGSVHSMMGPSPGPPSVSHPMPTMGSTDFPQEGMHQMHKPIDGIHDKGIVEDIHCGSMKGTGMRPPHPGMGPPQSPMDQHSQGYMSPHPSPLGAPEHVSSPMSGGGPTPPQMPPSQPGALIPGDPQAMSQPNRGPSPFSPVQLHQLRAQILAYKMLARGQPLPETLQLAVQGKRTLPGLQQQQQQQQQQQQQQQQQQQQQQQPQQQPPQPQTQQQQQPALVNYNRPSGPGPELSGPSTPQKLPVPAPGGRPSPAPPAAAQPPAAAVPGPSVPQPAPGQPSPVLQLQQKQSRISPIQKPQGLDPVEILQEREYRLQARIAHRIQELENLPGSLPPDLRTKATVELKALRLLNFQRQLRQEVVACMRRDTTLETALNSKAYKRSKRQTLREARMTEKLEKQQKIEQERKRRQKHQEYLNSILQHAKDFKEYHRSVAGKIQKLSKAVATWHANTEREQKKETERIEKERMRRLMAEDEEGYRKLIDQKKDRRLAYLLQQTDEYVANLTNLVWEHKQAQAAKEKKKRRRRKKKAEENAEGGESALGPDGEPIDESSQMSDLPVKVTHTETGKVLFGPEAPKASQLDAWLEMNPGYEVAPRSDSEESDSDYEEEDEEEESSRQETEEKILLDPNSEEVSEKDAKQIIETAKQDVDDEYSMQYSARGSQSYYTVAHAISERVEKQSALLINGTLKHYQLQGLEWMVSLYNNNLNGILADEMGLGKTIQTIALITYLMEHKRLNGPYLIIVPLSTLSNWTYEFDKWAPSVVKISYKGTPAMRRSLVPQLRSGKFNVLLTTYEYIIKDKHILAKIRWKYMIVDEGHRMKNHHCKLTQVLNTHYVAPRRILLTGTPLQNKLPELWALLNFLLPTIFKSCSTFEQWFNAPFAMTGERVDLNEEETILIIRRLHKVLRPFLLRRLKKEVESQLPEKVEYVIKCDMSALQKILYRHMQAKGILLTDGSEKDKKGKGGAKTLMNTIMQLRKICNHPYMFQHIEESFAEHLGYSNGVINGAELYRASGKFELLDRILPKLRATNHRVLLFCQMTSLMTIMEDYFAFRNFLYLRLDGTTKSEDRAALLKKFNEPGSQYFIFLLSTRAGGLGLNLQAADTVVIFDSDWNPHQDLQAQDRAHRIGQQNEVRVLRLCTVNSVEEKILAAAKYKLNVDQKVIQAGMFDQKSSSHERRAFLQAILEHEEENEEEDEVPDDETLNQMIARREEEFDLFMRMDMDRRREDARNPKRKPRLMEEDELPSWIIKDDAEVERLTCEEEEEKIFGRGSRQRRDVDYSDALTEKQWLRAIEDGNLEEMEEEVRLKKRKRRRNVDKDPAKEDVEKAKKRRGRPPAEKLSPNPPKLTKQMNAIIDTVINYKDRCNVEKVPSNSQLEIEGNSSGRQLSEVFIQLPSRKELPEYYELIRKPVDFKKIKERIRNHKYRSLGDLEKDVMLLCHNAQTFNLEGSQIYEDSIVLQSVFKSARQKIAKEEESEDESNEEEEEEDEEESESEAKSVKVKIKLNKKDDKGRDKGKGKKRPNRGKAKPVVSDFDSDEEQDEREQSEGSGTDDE

[8] = target: T2, von Hippel-Lindau disease tumor suppressor/SWI/SNF-related matrix-associated actin-dependent regulator of chromatin subfamily A member 2; assay: PROTAC activity at VHL/SMARCA2 in human HT-1080 cells assessed as induction of SMARCA2 degradation incubated for 24 hrs by Nano-Glo HiBiT Lytic Detection Assay; type: cell-based
NCI-H838 [9] = assay: Antiproliferative activity against human NCI-H838 cells assessed as cell growth inhibition incubated for 6 days by Cell Titer Glo assay; type: functional; settings: NCI-H838, 144 h, time 6 day
Calu-6 [10] = assay: Antiproliferative activity against human Calu-6 cells assessed as cell growth inhibition incubated for 6 days by Cell Titer Glo assay; type: functional; settings: Calu-6, 144 h, time 6 day
Calu-6 [11] = assay: Antiproliferative activity against human Calu-6 cells assessed as inhibition of cell growth at 1 uM incubated for 6 days by Cell Titer Glo assay; type: functional; settings: Calu-6, 144 h, time 6 day
[12] = target: SWI/SNF-related matrix-associated actin-dependent regulator of chromatin subfamily A member 2 (Homo sapiens, UniProt P51531); assay: Binding affinity to SMARCA2 (unknown origin) incubated for 30 mins by HTRF assay
[13] = target: SWI/SNF-related matrix-associated actin-dependent regulator of chromatin subfamily A member 4 (Homo sapiens, UniProt P51532); assay: Binding affinity to SMARCA4 (unknown origin) incubated for 30 mins by HTRF assay
[14] = target: T2, von Hippel-Lindau disease tumor suppressor/SWI/SNF-related matrix-associated actin-dependent regulator of chromatin subfamily A member 2; assay: Binding affinity to flag-tagged SMARCA2/VHL (unknown origin) assessed as ternary complex formation by measuring HTRF signal incubated for 120 mins by Envision reader analysis; type: protein assay
Target sequence in this assay (P40337 whole entry, looked up): as the sequence (P40337 whole entry) above
Target sequence in this assay (P51531 whole entry, looked up): as the sequence (P51531 whole entry, looked up) above

[15] = target: T2, von Hippel-Lindau disease tumor suppressor/SWI/SNF-related matrix-associated actin-dependent regulator of chromatin subfamily A member 2; assay: In vivo PROTAC activity at VHL/ SMARCA2 in female BALB/c mouse xenografted with human HT-1080 cells assessed as reduction in SMARCA2 level in tumor at 1 mg/kg, iv measured after 24 hrs relative to control; type: functional, organism-based; set-up: scale not given: the % may be the effect or the level left
Target sequence in this assay (P40337 whole entry, looked up): as the sequence (P40337 whole entry) above
Target sequence in this assay (P51531 whole entry, looked up): as the sequence (P51531 whole entry, looked up) above

NCI-H1568 = assay: Antiproliferative activity against human NCI-H1568 cells assessed as inhibition of cell proliferation incubated for 6 days by Cell Titer Glo assay; type: functional, cell-based; settings: time 6.0 day
NCI-H1573 = assay: Antiproliferative activity against human NCI-H1573 cells assessed as inhibition of cell proliferation incubated for 6 days by Cell Titer Glo assay; type: functional, cell-based; settings: time 6.0 day
HT-1080 = assay: Antiproliferative activity against wild type human HT-1080 cells assessed as inhibition of cell proliferation incubated for 6 days by Cell Titer Glo assay; type: functional, cell-based; settings: time 6.0 day
NCI-H838 [16] = assay: Antiproliferative activity against human NCI-H838 cells assessed as inhibition of cell proliferation incubated for 6 days by Cell Titer Glo assay; type: functional, cell-based; settings: time 6.0 day
[17] = target: T2, von Hippel-Lindau disease tumor suppressor/SWI/SNF-related matrix-associated actin-dependent regulator of chromatin subfamily A member 2; assay: PROTAC activity at VHL/SMARCA2 in human HT-1080 cells assessed as induction of SMARCA2 degradation measured after 6 hrs by Nano-Glo HiBiT Lytic Detection Assay; type: cell-based; settings: dose 0.02-1000 nM
Target sequence in this assay (P40337 whole entry, looked up): as the sequence (P40337 whole entry) above
Target sequence in this assay (P51531 whole entry, looked up): as the sequence (P51531 whole entry, looked up) above

[18] = target: T1, von Hippel-Lindau disease tumor suppressor/SWI/SNF-related matrix-associated actin-dependent regulator of chromatin subfamily A member 4; assay: PROTAC activity at VHL/SMARCA4 in human HT-1080 cells assessed as induction of SMARCA4 degradation pretreated with MLN4924 followed by compound addition and measured after 6 hrs by Nano-Glo HiBiT Lytic Detection Assay; type: cell-based
[19] = target: T2, von Hippel-Lindau disease tumor suppressor/SWI/SNF-related matrix-associated actin-dependent regulator of chromatin subfamily A member 2; assay: PROTAC activity at VHL/SMARCA2 in human HT-1080 cells assessed as induction of SMARCA2 degradation pretreated with MG132 followed by compound addition and measured after 6 hrs by Nano-Glo HiBiT Lytic Detection Assay; type: cell-based
Target sequence in this assay (P40337 whole entry, looked up): as the sequence (P40337 whole entry) above
Target sequence in this assay (P51531 whole entry, looked up): as the sequence (P51531 whole entry, looked up) above

[20] = target: T1, von Hippel-Lindau disease tumor suppressor/SWI/SNF-related matrix-associated actin-dependent regulator of chromatin subfamily A member 4; assay: In vivo PROTAC activity at VHL/ SMARCA4 in female BALB/c mouse xenografted with human HT-1080 cells assessed as increase in SMARCA4 level administered intravenously and measured after 24 hrs; type: functional, organism-based; settings: route iv
NCI-H1373 = assay: Antiproliferative activity against wild type human NCI-H1373 cells assessed as inhibition of cell proliferation incubated for 6 days by Cell Titer Glo assay; type: functional, cell-based; settings: time 6.0 day
[21] = target: T2, von Hippel-Lindau disease tumor suppressor/SWI/SNF-related matrix-associated actin-dependent regulator of chromatin subfamily A member 2; assay: PROTAC activity at VHL/SMARCA2 in human HT-1080 cells assessed as induction of SMARCA2 degradation at 0.02 to 1000 nM by Nano-Glo HiBiT Lytic Detection Assay; type: cell-based; settings: dose 0.02-1000 nM, time 6-24 hrs
Target sequence in this assay (P40337 whole entry, looked up): as the sequence (P40337 whole entry) above
Target sequence in this assay (P51531 whole entry, looked up): as the sequence (P51531 whole entry, looked up) above

[22] = target: T2, von Hippel-Lindau disease tumor suppressor/SWI/SNF-related matrix-associated actin-dependent regulator of chromatin subfamily A member 2; assay: In vivo PROTAC activity at VHL/ SMARCA2 in female BALB/c mouse xenografted with human HT-1080 cells assessed as reduction in SMARCA2 level in tumor at 10 mg/kg, iv measured after 24 hrs relative to control; type: functional, organism-based; set-up: scale not given: the % may be the effect or the level left
[23] = target: T2, von Hippel-Lindau disease tumor suppressor/SWI/SNF-related matrix-associated actin-dependent regulator of chromatin subfamily A member 2; assay: PROTAC activity at VHL/SMARCA2 in human HT-1080 cells assessed as induction of SMARCA2 degradation pretreated with MLN4924 followed by compound addition and measured after 6 hrs by Nano-Glo HiBiT Lytic Detection Assay; type: cell-based
Calu-6 [24] = assay: Antiproliferative activity against wild type human Calu-6 cells assessed as inhibition of cell proliferation incubated for 6 days by Cell Titer Glo assay; type: functional, cell-based; settings: time 6.0 day
[25] = target: T1, von Hippel-Lindau disease tumor suppressor/SWI/SNF-related matrix-associated actin-dependent regulator of chromatin subfamily A member 4; assay: PROTAC activity at VHL/SMARCA4 in human HT-1080 cells assessed as induction of SMARCA4 degradation pretreated with MG132 followed by compound addition and measured after 6 hrs by Nano-Glo HiBiT Lytic Detection Assay; type: cell-based

von Hippel-Lindau disease tumor suppressor, sequence (P40337 whole entry): as the sequence (P40337 whole entry) above

SMILES	Emax [2]	DC50 [3]	Ratio [4]	half-life [5]	IC50 [6]	Emax [7]	DC50 [8]	GI50 (NCI-H838 [9])	GI50 (Calu-6 [10])	also measured
Cc1ncsc1-c1ccc([C@H](C)NC(=O)[C@@H]2C[C@@H](O)CN2C(=O)[C@@H](n2cc([C@H]3CC[C@H](CN4CCC(c5ccc6c(c5)C(C)(C)c5nc(=O)c7c(Cl)cccc7n5-6)CC4)CC3)nn2)C(C)(C)C)cc1	78%	12 nM	43	1.5 h	1.5 nM	97%	0.28 nM	32 nM	> 1000 nM	hepatic extraction ratio [1]: 0.44
Cc1ncsc1-c1ccc([C@H](C)NC(=O)[C@@H]2C[C@@H](O)CN2C(=O)[C@@H](c2cc(N3CCC(CN4CCC(c5ccc6c(c5)-n5c(nc(=O)c7c(Cl)cccc75)C6(C)C)CC4)CC3)no2)C(C)C)cc1	69%	63 nM	37	–	8.6 nM	97%	1.7 nM	27 nM	> 1000 nM	inhibition at 1 µM (Calu-6 [11]): < 15%; IC50 [12]: 30 nM; IC50 [13]: 63 nM; Activity [14]: Active; Smarca2-Vhl Shows 60% Greater Auc Compared To Smarca4-Vhl Was Observed
Cc1ncsc1-c1ccc([C@H](C)NC(=O)[C@@H]2C[C@@H](O)CN2C(=O)[C@@H](n2cc([C@H]3CC[C@H](CN4CCC(c5ccc6c(c5)-n5c(nc(=O)c7c(Cl)cccc75)C6(C)C)CC4)CC3)nn2)C(C)(C)C)cc1	68%	94 nM	72	10 h	25 nM	97%	1.3 nM	34 nM	> 1000 nM	Activity [15]: 83%; Activity (NCI-H1568): Active; Activity (NCI-H1573): Active; Activity (HT-1080): Active; Less Activity Observed; Activity (NCI-H838 [16]): Active; Activity [17]: Dose-dependent-effect; Activity [18]: inactive; Activity [19]: inactive; Activity [20]: Active; Activity (NCI-H1373): Active; Less Activity Observed; Activity [21]: Time-dependent-effect; Activity [22]: > 95%; Activity [23]: inactive; Activity (Calu-6 [24]): Active; Less Activity Observed; Activity [25]: inactive

From ChEMBL document CHEMBL6096658, “Discovery of Potent, Highly Selective, and Efficacious SMARCA2 Degraders” (J Med Chem, 2025)
